Test results: patent US5968920A, “Compounds having a benzisoselen-azoline and -azine structure, method for preparing same and therapeutic uses thereof” (Oxis Isle of Man, Limited, priority 1994, dated 1999)

Key:
endothelial cells = test: Endothelial changes induced by PMN and TNF-α (von Willebrandt factor release); type: cell-based, human; details: BXT compounds 10 μM, pentoxifylline 50 μM; TNF-α 1 ng/ml; 3.5 h
Protocol: Human endothelial cells were cultivated under the same conditions as those described for Example 18.
When the cells were near confluence, they were incubated for one hour in the presence or absence of the following compounds: BXT-51072, BXT-51077 or pentoxifylline. Compounds BXT-51072 and BXT-51077, each at 10 μM, and the pentoxifylline, at 50 μM, were incorporated in culture medium containing 2% of foetal calf serum, all other conditions being the same. […] Myeloperoxidase (MPO), an enzyme specifically contained in PMNs, was then measured in the cell lysates obtained to evaluate adhesion of the PMNs on the endothelial cells. The von Willebrandt factor (vWf) liberated in the culture medium by the endothelial cells was measured after three and a half hours of incubation, as a label of the changes in the cells.
Incubation of the endothelial cells in the presence of PMN and TNF-α led to a very significant increase in the quantity of MPO and vWf with respect to the respective controls (PMN alone, and endothelial cells alone respectively), meaning the adhesion of activated PMNs to the endothelial cells and changes in the latter.
They are expressed as the percentage inhibition by referring the MPO and vWf measurements to the respective concentrations of MPO and vWf determined when the endothelial cells were incubated with TNF-α and PMNs.

rat = test: Tolerance after repeated oral administration to the rat in vivo; set-up: species or system Sprague-Dawley rat; details: 14 days
Protocol: Male adult Sprague-Dawley rats were randomly divided into 4 groups. To one group of 10 rats and another group of 15 rats, one dose of 10 μmoles and one dose of 100 μmoles per kilogram of body weight of BXT-51072 were respectively orally administered (force feeding) each day for 14 days. These doses were administered using an aqueous solution containing 1% of sodium carboxymethylcellulose (CMC). Using the same procedure, a third group of 12 rats received only the vector (1% CMC) and a […] group of 3 rats received no force feeding.
In order to evaluate any toxicity in the test compound, all the animals were regularly weighed over the 14 days. Their appearance and behavior were observed daily.
About 16 hours after the final administration, the rats were anaesthetised with ketamine and blood samples were taken by intra-cardiac tapping to measure different hematological and biochemical parameters. The weight curves of the animals are shown in FIGS. 5 and 6 and Table 3 summarises the results of measurements carried out on the blood of the animals and the corresponding deviations.

[1] = 10 and 100 μmoles/kg oral daily

Question: Which results are given for `CC1(C)CN[Se]c2ccccc21` [BXT-51072, 4,4-dimethyl-benzisoselenazine]?
Answer: protection of endothelial cells against the deleterious effects of activated PMNs (vWf) (endothelial cells): protect endothelial cells against the deleterious effects of activated PMNs; BAS (basophiles) (rat; 10 μmoles/kg oral, n 4): 0%; EOS (eosinophiles) (rat; 10 μmoles/kg oral, n 4): 0%; GB (White cells) (rat; 10 μmoles/kg oral, n 4): 8.45 G/l; GR (Red cells) (rat; 10 μmoles/kg oral, n 4): 6.88 T/l; HB (Hemoglobin) (rat; 10 μmoles/kg oral, n 4): 9.08 mM; HCT (Hematocrit) (rat; 10 μmoles/kg oral, n 4): 0.41; LYM (Lymphocytes) (rat; 10 μmoles/kg oral, n 4): 82%; MON (Monocytes) (rat; 10 μmoles/kg oral, n 4): 0%; NEU (neutrophiles) (rat; 10 μmoles/kg oral, n 4): 18%; PAL (Alkaline phosphalase) (rat; 10 μmoles/kg oral, n 4): 320 Ul/l; PLT (Platelets) (rat; 10 μmoles/kg oral, n 4): 541 G/l; Urea (rat; 10 μmoles/kg oral, n 4): 4.03 mM; VGM (Average cell volume of GR) (rat; 10 μmoles/kg oral, n 4): 59.8 II; K^+ (rat; 10 μmoles/kg oral, n = 1): 5.0 mM; Na^+ (rat; 10 μmoles/kg oral, n = 1): 143 mM; Cl^- (rat; 10 μmoles/kg oral, n = 2): 93 mM; Prot (Proteins) (rat; 10 μmoles/kg oral, n = 2): 53.9 g/L; ALAT (Alanine aminotransferase) (rat; 10 μmoles/kg oral, n = 3): 50 Ul/l; ASAT (Aspartale aminotransferase) (rat; 10 μmoles/kg oral, n = 3): 136 Ul/l; weight gain (rat; 100 μmoles/kg oral daily): slight slowing in weight gain; BAS (basophiles) (rat; 100 μmoles/kg oral, n 7): 0%; EOS (eosinophiles) (rat; 100 μmoles/kg oral, n 7): 1%; GB (White cells) (rat; 100 μmoles/kg oral, n 7): 7.57 G/l; GR (Red cells) (rat; 100 μmoles/kg oral, n 7): 7.44 T/l; HB (Hemoglobin) (rat; 100 μmoles/kg oral, n 7): 9.46 mM; HCT (Hematocrit) (rat; 100 μmoles/kg oral, n 7): 0.43; LYM (Lymphocytes) (rat; 100 μmoles/kg oral, n 7): 81%; MON (Monocytes) (rat; 100 μmoles/kg oral, n 7): 0%; NEU (neutrophiles) (rat; 100 μmoles/kg oral, n 7): 18%; PLT (Platelets) (rat; 100 μmoles/kg oral, n 7): 517 G/l; VGM (Average cell volume of GR) (rat; 100 μmoles/kg oral, n 7): 57.6 II; K^+ (rat; 100 μmoles/kg oral, n = 2): 5.0 mM; Na^+ (rat; 100 μmoles/kg oral, n = 2): 143 mM; ALAT (Alanine aminotransferase) (rat; 100 μmoles/kg oral, n = 4): 58 Ul/l; ASAT (Aspartale aminotransferase) (rat; 100 μmoles/kg oral, n = 4): 133 Ul/l; Cl^- (rat; 100 μmoles/kg oral, n = 4): 93 mM; Prot (Proteins) (rat; 100 μmoles/kg oral, n = 4): 55.0 g/L; PAL (Alkaline phosphalase) (rat; 100 μmoles/kg oral, n = 5): 310 Ul/l; Urea (rat; 100 μmoles/kg oral, n = 5): 4.05 mM; mortality (rat; [1]): none of the animals had died; other signs of toxicity (rat; [1]): no other sign of toxicity; tolerance (rat; repeated oral administration): tolerated well
